Literature values in patent US10004754B2, “ANP fragment adjuvant therapy to standard of care (SOC) diuretic treatment” (MADELEINE PHARMACEUTICALS PTY LTD, priority 2014, dated 2018).

Test system: ADCHF patients
Settings: cited from earlier work

nesiritide: A recombinant form of human BNP, approved by the FDA for the treatment of ADCHF
diuresis in ADCHF patients (Gottlieb, 2013): does not increase diuresis | patient mortality or re-hospitalisation rate (O'Conner et al., 2011): not associated with a change
